7 compounds from PMC6269946, “Anti-Plasmodial Activity of Some Zulu Medicinal Plants and of Some Triterpenes Isolated from Them” (Molecules, 2013) can be followed below.

Assay [1] concerns chloroquine sensitive (CQS) strain of Plasmodium falciparum (D10). Nature of the assay: In vitro antiplasmodial activity, parasite lactate dehydrogenase assay. Format: cell-based. To be noted: for IC50: Plasmodium falciparum. As to the method: The test samples (crude extracts, isolates, and chemical derivatives) were tested in triplicate against a chloroquine sensitive (CQS) strain of Plasmodium falciparum (D10). Continuous in vitro cultures of asexual erythrocyte stages of P. falciparum were maintained using modified method of Trager and Jensen. Quantitative assessment of anti-plasmodial activity in vitro was determined via the parasite lactate dehydrogenase assay using a modified method described by Makler. The test samples were prepared to a 20 mg/mL stock solution in 100% DMSO and sonicated to enhance solubility. Stock solutions were stored at −20 °C. Further dilutions were prepared on the day of the experiment. Chloroquine and artesunate were used as the reference drugs for experiments. A full dose-response was performed for all active compounds to determine the concentration inhibiting 50% of parasite growth (IC50-value). Test samples were tested at a starting concentration of 100 μg/mL, which was then serially diluted 2-fold in complete medium to give 10 preparations of variable concentrations; with the lowest concentration being 0.2 μg/mL. The same dilution technique was used for all samples. CQ was tested at a starting concentration of 1,000 ng/mL. The highest concentration of solvent to which the parasite-infected erythrocytes were exposed to had no measurable effect on the parasite viability (data not shown). The IC50-values were obtained using a non-linear dose-response curve fitting analysis via Graph Pad Prism v.4.0 software (Graph Pad Prism, Inc: San Diego, CA, USA, 1994–2003).

The test system of assay [2] is Plasmodium berghei. Kind of assay: In vivo antiplasmodial activity, four-day suppressive test in infected mice. To be noted: P. berghei infected mice, oral for four consecutive days, smears on day five; chloroquine 5 mg/kg/day; dose not given (50-400 mg/kg/day groups). More on the design: species or system Swiss mice. As to the method: This study was carried out after the approval from the Ethical Committee on Animal Use and Care of the University of Zululand (UZREC 171110-030 PGD 2013/26). Swiss mice (20-25 g each) of both sexes were obtained from biomedical research unit (BRU) in the University of […], Durban. They were kept in plastic cages, and given standard laboratory diet and water ad libitum and maintained under laboratory conditions of temperature and 12 h light and 12 h dark cycle. The animals were allowed to acclimatize to the laboratory at a controlled temperature of 22 °C for 15 days before being subjected to the experiments. The animals were divided into seven groups (eight in each group) consisting of control, chloroquine (5 mg/kg/day), and the extract treated group. The extract treated group was sub divided into five sub groups that received 50, 100, 200, 300 and 400 mg/kg/day body weight respectively. A single donor mouse infected with Plasmodium berghei parasites was bled into sterile heparinized culture medium and the blood was diluted with RPMI 1640 medium. The healthy experimental mice were infected intravenously via a tail vein with 0.2 mL of the diluted blood containing 1 × 10^7 parasitized (Plasmodium berghei) red blood cells on day one. The antimalarial activity tests were performed using the four-day suppressive tests described by Peters et al.. The extracts dissolved in 0.5% carboxymethyl cellulose (CMC) were administered orally using cannula (equivalent to 0.2 mL solution per mouse) for four consecutive days. […] The percent parasitemia suppression was determined by counting the number of parasitized erythrocytes out of 500 red blood cells on random fields under the microscope. The average percentage suppression of parasitemia was calculated using the following formula: % suppression = A - B/C (1) where A = % parasitemia in untreated controls, B = % parasitemia in treated groups, and C = % parasitemia in untreated controls. The data were analyzed using the F-test.

Setting [3] is: P. falciparum CQS D10 strain, in vitro, pLDH assay, triplicate, starting concentration 100 μg/mL, read-out: IC50 (anti-plasmodial activity, concentration inhibiting 50% of parasite growth).

≈ marks a conversion by molar mass, not a printed value. Read-outs that look alike come from different tables or passages of the source.

For `C[C@H]1[C@H](OC(=O)CCC(=O)O)O[C@@H]2O[C@@]3(C)CC[C@H]4[C@H](C)CC[C@@H]1[C@@]24OO3` [Artesunate, reference compound], in assay [1] (P. falciparum CQS D10 strain, in vitro, pLDH assay, values marked * = ng/mL, read-out: IC50 (anti-plasmodial activity), reference drugs), the IC50 stood at 0.0051 µg/mL (≈ 0.0133 µM).

For the compound `CO[C@H]1CC[C@@]2(C)C(CC[C@@]3(C)C4=CC[C@@]5(C)CCC(C)(C)CC5[C@]4(C)CCC23)C1(C)C` (some centres unmarked) [Sawamilletin, sawamilletin], in assay [1] (setting [3]), the IC50 was more than 100 µg/mL.

In the case of `CC(=O)O[C@H]1CC[C@]2(C)[C@H]3CC=C4[C@@H]5[C@@H](C)[C@H](C)CC[C@]5(C(=O)O)CC[C@@]4(C)[C@]3(C)CC[C@H]2C1(C)C` [Ursolic acid acetate, 3β-acetylursolic acid], the IC50 in assay [1] (setting [3]) came out at 1.9 µg/mL. In addition, the “Increase in the in vitro anti-malarial activity relative to ursolic acid” value in assay [1] (acetate derivative versus ursolic acid, P. falciparum D10) is 72%. Also, in assay [2], the Average % parasitemia came to 0.07% and the “Average % suppression (of parasitemia)” value was found to be 94.01%.

As for `C[C@H]1[C@H](C)CC[C@]2(C(=O)O)CC[C@]3(C)C(=CC[C@@H]4[C@@]5(C)CC[C@H](O)C(C)(C)[C@@H]5CC[C@]43C)[C@H]12` [Ursolic acid, ursolic acid], the IC50 in assay [1] (setting [3]) was 6.8 µg/mL (≈ 14.9 µM).

As for `CC1(C)CC[C@]2(C)CC=C3[C@]4(C)CC[C@H]5C(C)(C)[C@@H](O)CC[C@]5(C)[C@H]4CC[C@@]3(C)[C@@H]2C1` [Taraxerol, taraxerol], the IC50 in assay [1] (setting [3]) is more than 100 µg/mL.

Consider `CCN(CC)CCCC(C)Nc1ccnc2cc(Cl)ccc12` (centres unmarked) [Chloroquine, reference compound], for which, in assay [1] (D10, read-out: IC50 (anti-plasmodial activity), reference drugs), the IC50 came to 0.0141 µg/mL (≈ 0.0441 µM). Moreover, the “Average % suppression (of parasitemia)” value in assay [2] is 83.43%.

For the compound `C[C@H]1[C@H](C)CC[C@]2(C(=O)O)CC[C@]3(C)C(=CC[C@@H]4[C@@]5(C)CCC(=O)C(C)(C)[C@@H]5CC[C@]43C)[C@H]12` [3-oxo-ursolic acid], the IC50 in assay [1] (setting [3]) stood at 7.3 µg/mL (≈ 16.1 µM).
